US6476034B2, “Antiviral azaindole derivatives” (priority 2000, dated 2002)

Test system: single-round infectious HIV-1 reporter virus
Assay: microbe, parasite or virus in culture
Assay type: cell-based
Settings: for EC50: Human immunodeficiency virus 1, HeLa-CD4/CCR5; for inhibition at 10 µM: Human immunodeficiency virus 1, HeLa-CD4/CCR5, 72 h, read-out: Average % inhibition at or <10 μM; for Average % inhibition at or <10 μM: HeLa CD4 CCR5 cells, luciferase expression 3 days (72 hours) after infection, compounds tested below 10 μM: % inhibition at 10 μM extrapolated with XLfit, mean of at least two experiments

Row | Compound | EC50 [nM] | inhibition at 10 µM [%] | Average % inhibition at or <10 μM [%]
1 | COc1ccnc2[nH]cc(C(=O)C(=O)N3CCN(C(=O)c4c(F)c(F)c(N=[N+]=[N-])c(F)c4F)C[C@H]3C)c12 [Compound 5n, (R)-N-(4-azido-2,3,5,6-tetra-fluorobenzoyl)-3-methyl-N′-[(4-methoxy-7-azaindol-3-yl)-oxoacetyl]-piperazine] | < 1000 | 93 | 
2 | Cc1cc(Cl)nc2c(C(=O)C(=O)N3CCN(C(=O)c4ccccc4)C[C@H]3C)c[nH]c12 [Compound 5ak, (R)-N-(benzoyl)-3-Methyl-N′-[(5-Chloro-7-methyl-4-azaindol-3-yl)-oxoacetyl]-piperazine] | < 1000 |  | 
3 | C[C@@H]1CN(C(=O)c2ccccc2)CCN1C(=O)C(=O)c1cn(C)c2ncccc12 [Compound 21a, (R)-N-(benzoyl)-3-methyl-N′-[(1-methyl-7-azaindol-3-yl)-oxoacetyl]-piperazine] | < 1000 | 70 | 
4 | COc1ncc(OC)c2c(C(=O)C(=O)N3CCN(C(=O)c4ccccc4)C[C@H]3C)c[nH]c12 [Compound 5ap, ®-N-(benzoyl)-3-methyl-N′-[(4,7-dimethoxy-6-azaindol-3-yl)-oxoacetyl]piperazine] | < 1000 |  | 
5 | (R)-N-(benzoyl)-3-methyl-N′-[(4 or 6)-5phenyl-7-azaindol-3-yl)-oxoacetyl]-piperazine [Compound 11b] |  |  | 85
6 | C=CCn1cc(C(=O)C(=O)N2CCN(C(=O)c3ccccc3)C[C@H]2C)c2cccnc21 [Compound 21b, (R)-N-(benzoyl)-3-methyl-N′-[(1-allyl-7-azaindol-3-yl)-oxoacetyl]-piperazine] | < 1000 | 95 | 
7 | COc1cnc(Cl)c2[nH]cc(C(=O)C(=O)N3CCN(C(=O)c4ccccc4)CC3)c12 [Compound 5an, N-(benzoyl)-N′-[(7-chloro-4-methoxy-6-azaindol-3-yl)-oxoacetyl]piperazine] | < 1000 |  | 
8 | COc1ncc(OC)c2c(C(=O)C(=O)N3CCN(C(=O)c4ccccc4)CC3)c[nH]c12 [Compound 5ao, N-(benzoyl)-N′-[(4,7-dimethoxy-6-azaindol-3-yl)-oxoacetyl]piperazine] | < 1000 |  | 
9 | COc1nccc2c(C(=O)C(=O)N3CCN(C(=O)c4ccccc4)C[C@H]3C)c[nH]c12 [Compound 5v, (R)-N-(benzoyl)-3-Methyl-N′-[(7-Methoxy-6-azaindol-3-yl)-oxoacetyl]-piperazine] | < 1000 | > 99 | 
10 | CNc1ccnc2[nH]cc(C(=O)C(=O)N3CCN(C(=O)c4ccccc4)C[C@H]3C)c12 [Compound 17h, (R)-N-(benzoyl)-3-methyl-N′-[(4-methylamino-7-azaindol-3-yl)-oxoacetyl]-piperazine] | > 500 |  | 
11 | C[C@@H]1CN(C(=O)c2ccccc2)CCN1C(=O)C(=O)c1c[nH]c2c(Cl)nccc12 [Compound 5u, (R)-N-(benzoyl)-3-Methyl-N′-[(7-Chloro-6-azaindol-3-yl)-oxoacetyl]-piperazine] | < 1000 | 99 | 
12 | C[C@@H]1CN(C(=O)c2ccccc2)CCN1C(=O)C(=O)c1c[nH]c2nccc(Cl)c12 [Compound 9a, (R)-N-(benzoyl)-3-methyl-N′-[(4-chloro-7-azaindol-3-yl)-oxoacetyl]-piperazine] | < 1000 | > 99 | 
13 | C[C@@H]1CN(C(=O)c2ccccc2)CCN1C(=O)C(=O)c1c[nH]c2nccc(N)c12 [Compound 20a, (R)-N-(benzoyl)-3-methyl-N′-[(4-amino-7-azaindol-3-yl)-oxoacetyl]-piperazine] | < 1000 | 95 | 
14 | C[C@@H]1CN(C(=O)c2ccccc2)CCN1C(=O)C(=O)c1c[nH]c2c(Cl)ccnc12 [Compound 5y, (R)-N-(benzoyl)-3-Methyl-N′-[(7-Chloro-4-azaindol-3-yl)-oxoacetyl]-piperazine] | < 1000 | > 99 | 
15 | C[C@@H]1CN(C(=O)c2ccccc2)CCN1C(=O)C(=O)c1c[nH]c2nccc([N+](=O)[O-])c12 [Compound 18a, (R)-N-(benzoyl)-3-methyl-N′-[(4-nitro-7-azaindol-3-yl)-oxoacetyl]-piperazine] | 1000 to 5000 | 80 | 
16 | (R)-N-(benzoyl)-3-methyl-N′-[(4 or 6)-vinyl-7-azaindol-3-yl)-oxoacetyl]-piperazine [Compound 11c] |  |  | 48
17 | O=C(C(=O)N1CCN(C(=O)c2ccccc2)CC1)c1c[nH]c2c(Cl)nccc12 [Compound 5t, N-(benzoyl)-N′-[(7-Chloro-6-azaindol-3-yl)-oxoacetyl]-piperazine] | < 1000 | > 99 | 
18 | COc1ccnc2[nH]cc(C(=O)C(=O)N3CCN(C(=O)c4ccccc4)CC3C)c12 (stereo not drawn) [Compound 17e, N-(benzoyl)-3-methyl-N′-[(4-methoxy-7-azaindol-3-yl)-oxoacetyl]-piperazine] | < 1000 | 94 | 
19 | COc1ccnc2[nH]cc(C(=O)C(=O)N3CCN(C(=O)c4ccccc4)C[C@H]3C)c12 [Compound 17a, (R)-N-(benzoyl)-3-methyl-N′-[(4-methoxy-7-azaindol-3-yl)-oxoacetyl]-piperazine] | < 1000 | > 99 | 
20 | CC(C)C1CN(C(=O)C(=O)c2c[nH]c3ncccc23)CCN1C(=O)c1ccccc1 (stereo not drawn) [Compound 5ac, N-(benzoyl)-2-iso-Propyl-N′-[(7-azaindol-3-yl)-oxoacetyl]-piperazine] | > 400 |  | 
21 | CC1CN(C(=O)c2ccccc2)CCN1C(=O)C(=O)c1c[nH]c2ncccc12 (stereo not drawn) [Compound 5ai, N-(benzoyl)-3-methyl-N′-[(7-azaindol-3-yl)-oxoacetyl]-piperazine] | < 1000 |  | 
22 | O=C(C(=O)N1CCN(C(=O)c2ccccc2)CC1)c1c[nH]c2cnccc12 [Compound 5p, N-(benzoyl)-N′-[(6-azaindol-3-yl)-oxoacetyl]-piperazine] | > 500 | 40 | 
23 | O=C(C(=O)N1CCN(C(=O)c2ccccc2)CC1)c1c[nH]c2ncccc12 [Compound 5d, N-(benzoyl)-N′-[(7-azaindol-3-yl)-oxoacetyl]-piperazine] | < 1000 | 98 | 
24 | (R)-N-(benzoyl)-3-methyl-N′-[(4 or 6)-methyl-7-azaindol-3-yl)-oxoacetyl]-piperazine [Compound 11a] |  |  | 99
25 | C[C@H]1CN(C(=O)c2ccccc2)CCN1C(=O)C(=O)c1c[nH]c2ncccc12 [Compound 5f, (S)-N-(benzoyl)-3-methyl-N′-[(7-azaindol-3-yl)-oxoacetyl]-piperazine] | < 1000 | 80 | 
26 | CC(=O)Oc1ccc2c(C(=O)C(=O)N3CCN(C(=O)c4ccccc4)C[C@H]3C)cn(C(C)=O)c2n1 [Compound 13a, (R)-N-(benzoyl)-3-methyl-N′-[(1-acetyl-6-acetoxy-7-azaindol-3-yl)-oxoacetyl]-piperazine] | < 1000 | > 99 | 
